Values joined by “and” are separate entries in the source; they are usually repeats but may differ in a detail not shown here. Equal entries are not always repeated. Where two headings read alike, the source gives them in different places.
Experiments:
AR-LBD = target: T1, AR-LBD (Homo sapiens, UniProt P10275); experiment: H^3-DHT radioligand binding assay
T1 construct: The pET28a-AR-LBD (622-919) construct; made in house
T1 sequence (P10275 622-919): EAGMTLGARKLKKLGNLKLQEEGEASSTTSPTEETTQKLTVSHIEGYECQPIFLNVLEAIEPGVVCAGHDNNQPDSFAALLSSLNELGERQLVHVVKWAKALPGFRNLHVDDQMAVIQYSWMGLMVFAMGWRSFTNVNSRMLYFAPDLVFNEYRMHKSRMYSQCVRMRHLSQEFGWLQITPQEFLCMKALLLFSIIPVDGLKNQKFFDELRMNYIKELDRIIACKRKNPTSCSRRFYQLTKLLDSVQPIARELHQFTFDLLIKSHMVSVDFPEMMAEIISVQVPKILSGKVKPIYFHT
Procedure: H^3-DHT Radioligand Binding Assay: The His6-AR-LBD H^3-DHT competition binding assay has been described previously (Fancher et al., Assay Drug Dev Technol. 2016, 14:453-477; Fancher et al., Assay Drug Dev Technol. 2019, 17:364-386). Briefly, 96-well Cu^2+-coated plates (ThermoFisher) were incubated overnight at 4° C. with 5 µg per well His6-AR-LBD in 100 μL of PBS. Unbound His6-AR-LBD was aspirated, the plate was washed 3× with 100 μL of 0.05% Tween 20 in PBS and then blocked with 100 μL of 1 mg/mL BSA in PBS for 1 h. After three more washes with 100 μL of PBS and 0.05% Tween 20, 40 μL of PBS was added to wells followed by […] each of diluted compounds and 100 nM H^3-DHT transferred into the wells using a Matrix pipettor. Compounds were tested between 0.098 to 50 μM in the presence of 10 nM H^3-DHT. After 1 h, compounds and H^3-DHT were aspirated and washed 3× with 0.05% Tween 20 in PBS; 100 μL of Microscint™-20 micro-scintillation cocktail buffer (Perkin Elmer, Waltham, MA) was added to each well, plates were sealed with adhesive plastic covers; and the counts per minute (CPMs) were captured in a TopCount NXT microtiter plate reader (Perkin Elmer, Waltham, MA).

[1] = system: PC-3, DU-145, LNCaP, C4-2, and 22Rv1 PC cell lines; experiment: Prostate cancer cell line growth inhibition assays, results stated across cell lines; format: cell-based; conditions: for GI50s against all 5 PCa cell lines: all 5 cell lines, 72 h; for Relative potency in AR positive versus AR negative PC cell lines: 72 h growth inhibition; for GI50s against the 3 AR+ PCa cell lines: LNCaP, C4-2, 22Rv1
Procedure: Prostate Cancer Cell Line Growth Inhibition Assays: The PC-3, DU-145, LNCaP, C4-2, and 22Rv1 PC cell line growth inhibition assays have been described previously (Fancher et al., Assay Drug Dev Technol. 2016, 14:453-477; Fancher et al., Assay Drug Dev Technol. 2019, 17:364-386). On day 1, each PC cell line was harvested, counted, and seeded into two 384-well assay plates, a time zero (T0) and a time 72 h (T72) plate. PC cell lines were all seeded at 1,000 cells per well in 45 μL of tissue culture media in uncoated white clear bottom 384-well assay plates (VWR, #82050-076) using a Matrix electronic multichannel pipette (Thermo Fisher Scientific, Waltham, MA) and cultured overnight at 37° C., 5% CO2, and 95% humidity. On day 2, 25 μL of the CellTiter-Glo® (CTG) (Promega Corporation, Madison, WI) detection reagent was dispensed into the wells of the TO assay plate using a Matrix electronic multichannel pipette, and the RLUs were captured on the SpectraMax® M5e (Molecular Devices LLC, Sunnyvale, CA) microtiter plate reader. Also on day 2, 5 μL of compounds were transferred into the test wells of the T72 384-well assay plates which were returned to the incubator for 72 h. Control wells received DMSO alone. On day 5, 25 μL of the CTG detection reagent was dispensed into the wells of the T72 assay plate using a Matrix electronic multichannel pipette, and the RLU's were captured on the SpectraMax® M5e microtiter plate reader platform.
For the 96-well AR-LBD H^3-DHT radioligand binding assay, eight minimum and maximum plate control wells were utilized to normalize the data. For the PC cell line growth inhibition assays the DMSO control data from the TO and T72 assay plates was used to assess the dynamic range of the T0 to T72 cell growth, and to calculate S:B ratios and Z′-factor coefficient statistics for the assay signal window (T0 to T72). To normalize the 72 h compound exposure PC growth inhibition data, the signals from the compound treated wells were processed and expressed as % of the T72 DMSO plate controls. IC50 and GI50 values for each of the bioassays were calculated using GraphPad Prism 9 software to plot and fit data to curves using the Sigmoidal dose response variable slope equation Y=Bottom+[Top-Bottom]/[1+10^(Log EC50−X)*HillSlope].

[2] = system: UBE2C promoter-driven transcription in PC3-AR-V7-GFP cells; experiment: UBE2C promoter driven luciferase reporter assay in PC3-AR-V7-GFP cells; format: cell-based
Procedure: UBE2C Promoter Driven Luciferase Reporter Assay in PC3-AR-V7-GFP Cells: The pGL4.28-UBE2C 20bpX3 luciferase reporter plasmid (Xu et al., Cancer Res 2015, 75:3663-71) was provided by Dr. Yan Dong from Tulane University. FuGENE® HD transfection agent and the UBE2C-Luc plasmid (10 ng/well) were combined at a 3:1 (μL:μg) ratio, in Opti-MEM™ medium and incubated for 25 min at RT before being added to PC3-AR-V7-GFP cells that were suspended in RPMI 1640 (Gibco) media containing 1% L-glutamine (Invitrogen), and 10% fetal bovine serum (Gemini Bio-products). Bulk transfected PC3-AR-V7-GFP cells were seeded into white opaque 384-well assay plates (Greiner Bio-one, #781080) at a density of 3,000 cell per well in a volume of […] and incubated at 5% CO2, 37° C., and 95% humidity for 24 h. After 24 h, 10 μL of compounds were transferred to assay wells and the plates were returned to the incubator for an additional 24 h before 25 μL of BrightGlo® luciferase reagent (Promega) was added to the wells and the RLU's were captured on a SpectraMax® M5e plate reader (Molecular Devices LLC) as described previously (Ibid.).

[3] = 10 nM H^3-DHT, read-out: Inhibition H^3-DHT ligand binding to AR-LBD IC50
[4] = PC3-AR-V7-GFP cells, constitutive, read-out: Inhibition AR-V7 UBE2C-reporter IC50
[5] = 24 h, 24 h exposure, read-out: IC50 in UBE2C-Luc AR-V7 reporter assay (potency range in words)
[6] = read-out: IC50 in H^3-DHT binding assay (potency range in words)

Cc1ccccc1-c1cc(O)c2c(c1)CN(c1nc(C(N)=O)cs1)CCO2 [Compound S1-1]
IC50 (AR-LBD; 10 nM H^3-DHT, listed as 1, read-out: Inhibition H^3-DHT ligand binding to AR-LBD IC50): 26.7 µM
IC50 (AR-LBD; [3]): ~44 µM and ~27 µM
GI50s against all 5 PCa cell lines [1]: 29 to 70 µM
IC50 [2, 4]: < 35 µM

Cc1c(-c2ccccc2F)[nH]c2ccc(CNC(=O)CCc3cn[nH]c3)cc12 [Compound S3-11]
IC50 (AR-LBD; [3]): > 100 µM
Relative potency in AR positive versus AR negative PC cell lines [1]: differential cytotoxicity in AR positive PC cell lines
IC50 [2, 5]: 10 to 100 µM
IC50 [2, 4]: 12 µM

Cc1ccccc1-c1cc(O)c2c(c1)CN(c1cc(N)ncn1)CCO2 [Compound S1-4]
Relative potency in AR positive versus AR negative PC cell lines [1]: equipotent against all 5 PC cell lines

Cc1nc(N)cc(N2CCOc3c(O)cc(-c4ccccc4C)cc3C2)n1 [Compound S1-2]
IC50 (AR-LBD; [3]): > 100 µM
Relative potency in AR positive versus AR negative PC cell lines [1]: equipotent against all 5 PC cell lines
IC50 [2, 4]: 8.3 µM

Cc1ccccc1-c1cc(O)c2c(c1)CN(c1nccs1)CCO2 [Compound S1-3]
IC50 (AR-LBD; [3]): > 100 µM
Relative potency in AR positive versus AR negative PC cell lines [1]: differential cytotoxicity in AR positive PC cell lines
GI50s against all 5 PCa cell lines [1]: 44 to 75 µM

Cc1nsc(NC(=O)N2CCC(Cn3ccnc3)CC2)n1 [Compound S2-7]
GI50s against the 3 AR+ PCa cell lines [1]: 30 to 64 µM
GI50s in AR negative cell lines ([1]; PC-3 and DU-145): ~94 µM
GI50s against all 5 PCa cell lines [1]: 30 to 94 µM

Cc1c(-c2ccccc2F)[nH]c2ccc(CNC(=O)c3ccc(CO)o3)cc12 [Compound S3-14]
IC50 (AR-LBD; [3]): 63 µM
IC50 (AR-LBD; [6]): 10 to 100 µM
Relative potency in AR positive versus AR negative PC cell lines [1]: differential cytotoxicity in AR positive PC cell lines
GI50s against the 3 AR+ PCa cell lines [1]: 30 to 100 µM
IC50 [2, 5]: 10 to 100 µM

COc1cc(-c2ccc(C)s2)cc2c1OCCN(c1nc(C(N)=O)cs1)C2 [Compound S1-5]
IC50 (AR-LBD; [3]): > 100 µM
GI50s against all 5 PCa cell lines [1]: > 100 µM

Cc1nsc(NC(=O)N2CCC(Sc3ccccc3C)CC2)n1 [Compound S2-6]
IC50 (AR-LBD; [3]): > 100 µM
GI50s against the 3 AR+ PCa cell lines [1]: 14 to 19 µM
IC50 [2, 4]: ~15 µM

CC(=O)NCCC(=O)NCc1ccc2[nH]c(-c3ccccc3F)c(C)c2c1 [Compound S3-13]
IC50 (AR-LBD; [3]): > 100 µM
GI50s against 2 AR+ PCa cell lines ([1]; 2 AR+ cell lines, not named): 68 to 70 µM
Relative potency in AR positive versus AR negative PC cell lines [1]: roughly equipotent against all 5 PC cell lines
IC50 [2, 4]: > 100 µM

Cc1c(-c2ccc(F)cc2)[nH]c2ccc(CNC(=O)c3ccc(CO)o3)cc12 [Compound S3-15]
IC50 (AR-LBD; [3]): > 100 µM
Relative potency in AR positive versus AR negative PC cell lines [1]: roughly equipotent against all 5 PC cell lines
IC50 [2, 5]: 10 to 100 µM

Cc1c(-c2ccccc2F)[nH]c2ccc(CNC(=O)CCc3cnccn3)cc12 [Compound S3-12]
IC50 (AR-LBD; [3]): > 100 µM
Relative potency in AR positive versus AR negative PC cell lines [1]: roughly equipotent against all 5 PC cell lines
IC50 [2, 5]: 10 to 100 µM

CNC(=O)c1ccc(-c2c[nH]c3c(C)cccc23)cc1 [Compound S3-21]
IC50 (AR-LBD; [3]): > 100 µM
GI50s against 4 PCa cell lines ([1]; 4 cell lines, not named): 13 to 55 µM
Relative potency in AR positive versus AR negative PC cell lines [1]: differential cytotoxicity in AR positive PC cell lines
IC50 [2, 4]: > 100 µM

Cc1cccc2c(-c3ccc(O)c(F)c3)c[nH]c12 [Compound S3-17]
IC50 (AR-LBD; [3]): 56 µM
IC50 (AR-LBD; [6]): 10 to 100 µM
Relative potency in AR positive versus AR negative PC cell lines [1]: roughly equipotent against all 5 PC cell lines
IC50 [2, 5]: 10 to 100 µM

Source: patent publication US20260083751A1, “ALLOSTERIC MODULATORS OF ANDROGEN RECEPTOR COACTIVATOR RECRUITMENT FOR CRPC THERAPY” (University of Pittsburgh – Of the Commonwealth System of …, priority 2022, published 2026)
